Source: patent US4737518A, “Lipid derivatives, their production and use” (Takeda Chemical Industries, Ltd., priority 1984, dated 1988)

Experiments:
[1] = system: rabbit platelet aggregation by PAF; assay: Inhibitory activity on rabbit platelet aggregation by PAF; format: cell-based; settings: Oryctolagus cuniculus, PAF 1×10^-8 M, read-out: rate of inhibition of rabbit platelet aggregation by PAF; for inhibition at 30 µM: test drug 3 × 10^-5 M; for inhibition at 3 µM: test drug 3 × 10^-6 M; for inhibition at 0.3 µM: test drug 3 × 10^-7 M; for inhibition at 0.03 µM: test drug 3 × 10^-8 M
HL-60 cells = assay: Effect on inducing differentiation of HL-60 cells (NBT-positive cells); format: cell-based, human; settings: 6 days; for Emax: Homo sapiens, HL-60, 144 h, at optimal conc., NBT-positive relative to live cells, read-out: Maximum differentiation extent: Differentiation
Protocol: Assay of the effects on inducing differentiation of HL-60 cells (human promyelocytic leukemia cells) and Neuro-2a cells (mouse neuroblastoma cells): RPMI-1640 medium (Flow Laboratories, Inc.) supplemented with 20% fetal calf serum (M.A. […] The culture was incubated at 37° C. in a 5% CO2 incubator for 6 days. […] The reaction was allowed to proceed at 37° C. for 20 minutes. The reaction was stopped by cooling with ice, and the cells were washed by means of centrifugation, followed by collecting 3-5×10^4 cells and by subjecting to centrifugation using Cytospin centrifuge to prepare a cell smear, which was fixed with methanol and stained with Kernechtrot solution. On each cell smear, the percentage of NBT-positive cells relative to live cells, […] by examination of a minimum of 200 cells, was expressed as the differentiation extent.

PAF-induced hypotension = assay: Inhibitory activity against PAF-induced hypotension in rats; format: in vivo, rat (male Spraque-Dawley); settings: PAF 0.3 μg/kg i.v.
Protocol: Inhibitory activity against PAF-induced hypotension in rats
Male Spraque-Dawley rats, with a body weight of about 400 g, were used under pentobarbital sodium (50 mg/kg, intravenous administration) anesthesia. A cannula was inserted into the femoral artery and secured in position for measurement of blood pressure and another cannula into the femoral vein for administration of a solution of the drug. The blood pressure was measured via a pressure transducer and recorded on a polygraph. First, 0.3 μg/kg of PAF was administered intravenously and the hypotensive response was recorded.
The inhibitory activity against PAF-induced hypotension was estimated from the rate of PAF-induced hypotensive response (Δ mmHg) after the drug administration to hypotensive response (Δ mmHg) by PAF before the drug administration.

| SMILES | inhibition at 30 µM [1] | inhibition at 3 µM [1] | inhibition at 0.3 µM [1] | further results |
| --- | --- | --- | --- | --- |
| CCCCCCCCCCCCCCCCCCOCC(COC(=O)NCC[n+]1ccsc1)OCc1ccccc1 (stereo not shown) [Example 8, 2-O-Benzyl-1-O-octadecyl-3-O-(2'-thiazolioethyl)carbamoylglycerol bromide] | 100% | – | – | – |
| CCCCCCCCCCCCCCCCCCNC(=O)OCC(COC(=O)NCC[N+](C)(C)C)OC (stereo not shown) [Example 10, 2-O-Methyl-1-O-octadecylcarbamoyl-3-O-(2'-trimethylammonioethyl)carbamoylglycerol iodide] | 82% | – | – | – |
| CCCCCCCCCCCCCCCCCCNC(=O)OCC(COC(=O)NCC[n+]1ccsc1)OC (stereo not shown) [Example 14, 2-O-Methyl-1-O-octadecylcarbamoyl-3-O-(2'-thiazolioethyl)carbamoylglycerol bromide] | 100% | 52% | – | – |
| CCCCCCCCCCCCCCCCCCOCC(COC(=O)NCC[N+](C)(C)C)NC(C)=O (stereo not shown) [Example 19, 1-Octadecyloxy-2-acetamido-3-(2'-trimethylammonioethyl)carbamoyloxypropane iodide] | 72% | – | – | – |
| CCCCCCCCCCCCCCCCCCOCC(COC(=O)N(CC[N+](C)(C)C)C(C)=O)NC(C)=O (stereo not shown) [Example 20, 1-Octadecyloxy-2-acetamido-3-[N-acetyl-N-(2'-trimethylammonioethyl)]carbamoyloxypropane iodide] | 100% | 100% | – | – |
| CCCCCCCCCCCCCCCCCCNC(=O)OCC(COC(=O)N(CC[N+](C)(C)C)C(=O)OC)OC (stereo not shown) [Example 56, 2-O-Methyl-1-O-[N-methoxycarbonyl-N-(2'-trimethylammonioethyl)]carbamoyl-3-O-octadecylcarbamoylglycerol iodide] | 100% | 64% | – | – |
| CCCCCCCCCCCCCCCCCCNC(=O)OCC(COC(=O)N(CC[N+](C)(C)C)C(=O)N(C)C)OC (stereo not shown) [Example 62, 1-O-[N-Dimethylcarbamoyl-N-(2'-trimethylammonioethyl)]carbamoyl-2-O-methyl-3-O-octadecylcarbamoylglycerol iodide] | 100% | 34% | – | – |
| CCCCCCCCCCCCCCCCCCOCC(Cn1ccc(=O)n(CC[N+](C)(C)C)c1=O)OC(C)=O (stereo not shown) [Example 102, 1-(2-Acetyloxy-3-octadecyloxy)propyl-3-(2-trimethylammonioethyl)urasil chloride] | 100% | 100% | – | inhibition at 1 µM ([1]; test drug 1 × 10^-6 M): 72% |
| CCCCCCCCCCCCCCCCCCNC(=O)OCC(CNC(=O)N(Cc1cccc[n+]1C)C(C)=O)OC.[Cl-] (stereo not shown) [Example 106, 1-Methyl-2-[N-acetyl-N'-(3-octadecylcarbamoyloxy-2-methoxypropyl)ureido]methylpyridinium chloride] | – | – | – | Maximum differentiation extent: Optimal conc. (HL-60 cells): 1.88 µg/mL; Emax (HL-60 cells): 78% |
| CCCCCCCCCCCCCCCCCCNC(=O)OCC(CN1CC(=O)N(CC[n+]2ccsc2)C1=O)OC (stereo not shown) [Example 110, 1-[(2-methoxy-3-octadecylcarbamoyloxy)propyl]-3-(2-thiazolioethyl)hydantoinchloride] | 100% | 100% | 34% | – |
| CCCCCCCCCCCCCCCCCCNC(=O)OCC(COC(=O)N(Cc1cccc[n+]1C)C(C)=O)OCC (stereo not shown) [Example 116] | 100% | 100% | 100% | Restoration rate (PAF-induced hypotension; 1 mg/kg i.v., after 5 min): 100%; Restoration rate (PAF-induced hypotension; 1 mg/kg i.v., after 60 min): 77% |
| CCCCCCCCCCCCCCCCCCNC(=O)OCC(COC(=O)N(Cc1cccc[n+]1CC)C(C)=O)OCC (stereo not shown) [Example 117] | – | 100% | 100% | Restoration rate (PAF-induced hypotension; 1 mg/kg i.v., after 5 min): 100%; Restoration rate (PAF-induced hypotension; 1 mg/kg i.v., after 60 min): 100% |
| CCCCCCCCCCCCCCCCCCNC(=O)OCC(Cn1ccc(=O)n(CC[N+](C)(C)C)c1=O)OC (stereo not shown) [Example 136, N-[2-{1-(3-Octadecylcarbamoyloxy-2-methoxypropyl)uracil-3-yl}ethyl]-N,N,N-trimethylammonium chloride] | 100% | 100% | 11% | – |
| CCCCCCCCCCCCCCCCCCNC(=O)OCC(COC(=O)NCc1scc[n+]1C)OC (stereo not shown) [Example 140, 2-[N-(3-Octadecylcarbamoyloxy-2-methoxypropoxycarbonyl)amino]methyl-3-methylthiazolium iodide] | 100% | 100% | 100% | inhibition at 0.03 µM [1]: 18% |
| CCCCCCCCCCCCCCCCCCNC(=O)OCC(COC(=O)N(Cc1scc[n+]1C)C(C)=O)OC.[I-] (stereo not shown) [Example 142, 2-[N-Acetyl-N-(3-octadecylcarbamoyloxy-2-methoxypropoxycarbonyl)amino]methyl-3-methylthiazolium iodide] | 100% | 100% | 100% | Restoration rate (PAF-induced hypotension; 1 mg/kg i.v., after 5 min): 100%; Restoration rate (PAF-induced hypotension; 1 mg/kg i.v., after 60 min): 100%; inhibition at 0.03 µM [1]: 25% |
| CCCCCCCCCCCCCCCCCCNC(=O)OCC(COC(=O)N(Cc1scc[n+]1CC)C(C)=O)OC.[I-] (stereo not shown) [Example 143, 2-[N-Acetyl-N-(3-octadecylcarbamoyloxy-2-methoxypropoxycarbonyl)amino]methyl-3-ethylthiazolium iodide] | – | 100% | 100% | Restoration rate (PAF-induced hypotension; 1 mg/kg i.v., after 5 min): 100%; Restoration rate (PAF-induced hypotension; 1 mg/kg i.v., after 60 min): 100% |
| CCCCCCCCCCCCCCCCCCNC(=O)OCC(COC(=O)N(Cc1scc[n+]1CCC)C(C)=O)OC (stereo not shown) [Example 144, 2-[N-Acetyl-N-(3-octadecylcarbamoyloxy-2-methoxypropoxycarbonyl)amino]methyl-3-propylthiazolium iodide] | – | 100% | 100% | inhibition at 0.03 µM [1]: 9% |
| CCCCCCCCCCCCCCCCCCNC(=O)OCC(COC(=O)N(Cc1scc[n+]1CCCC)C(C)=O)OC (stereo not shown) [Example 145, 2-[N-Acetyl-N-(3-octadecylcarbamoyloxy-2-methoxypropoxycarbonyl)amino]methyl-3-butylthiazolium iodide] | – | 100% | 100% | – |
| CCCCCCCCCCCCCCCCCCNC(=O)OCC(COC(=O)N(Cc1csc[n+]1C)C(C)=O)OC (stereo not shown) [Example 148, 4-[N-Acetyl-N-(3-octadecylcarbamoyloxy-2-methoxypropoxycarbonyl)amino]methyl-3-methylthiazolium iodide] | – | 100% | 42% | – |
| CCCCCCCCCCCCCCCCCCNC(=O)OCC(COC(=O)N(Cc1csc[n+]1CC)C(C)=O)OC.[I-] (stereo not shown) [Example 149, 4-[N-Acetyl-N-(3-octadecylcarbamoyloxy-2-methoxypropoxycarbonyl)amino]methyl-3-ethylthiazolium iodide] | – | 100% | 100% | Restoration rate (PAF-induced hypotension; 0.1 mg/kg i.v., after 5 min): 100%; Restoration rate (PAF-induced hypotension; 0.1 mg/kg i.v., after 60 min): 39%; Restoration rate (PAF-induced hypotension; 1 mg/kg i.v., after 5 min): 100%; Restoration rate (PAF-induced hypotension; 1 mg/kg i.v., after 60 min): 100%; inhibition at 0.03 µM [1]: 78% |
| CCCCCCCCCCCCCCCCCCNC(=O)OCC(COC(=O)N(C(C)=O)C1CCC[N+](C)(CC)C1)OC (stereo not shown) [Example 161, 3-[N-Acetyl-N-(3-octadecylcarbamoyloxy-2-methoxypropoxycarbonyl)]amino-1-ethyl-1-methylpiperidinium chloride] | 100% | 100% | 6% | – |
| CCCCCCCCCCCCCCCCCCNC(=O)OCC(COC(=O)N(Cc1cccc[n+]1CCC)C(C)=O)OC (stereo not shown) [Example 173, 3-[N-Acetyl-N-(N'-propylpyridinio-2-yl)methyl]carbamoyl-1-octadecylcarbamoyl-2-methylglycerol chloride] | 100% | 100% | 100% | – |
| C=CC[n+]1ccccc1CN(C(C)=O)C(=O)OCC(COC(=O)NCCCCCCCCCCCCCCCCCC)OC (stereo not shown) [Example 174, 3-[N-Acetyl-N-(N'-allylpyridinio-2-yl)methyl]carbamoyl-1-octadecylcarbamoyl-2-methylglycerol chloride] | 100% | 100% | 100% | – |
| CCCCCCCCCCCCCCCCCCNC(=O)OCC(COC(=O)N(Cc1cccc[n+]1CCCC)C(C)=O)OC (stereo not shown) [Example 177, 3-[N-Acetyl-N-(N'-butylpyridinio-2-yl)methyl]carbamoyl-1-octadecylcarbamoyl-2-methylglycerol chloride] | – | – | – | Maximum differentiation extent: Optimal conc. (HL-60 cells): 0.48 µg/mL; Emax (HL-60 cells): 91% |
